Measured values reported in US9676701B2, “Cyclopropylamine derivatives useful as LSD1 inhibitors” (Oryzon Genomics, S.A., priority 2010, dated 2017).
Counter-ions that a name gives are not always drawn. Like-named read-outs stand apart in the source and are kept apart here.

Columns and labels:
MAO-B = MAO-B (Homo sapiens (Human), UniProt P27338); details: read-out: MAO-B (Ki)
MAO-A [1] = biological target: T1, MAO-A (Homo sapiens (Human), UniProt P21397); details: read-out: MAO-A (Ki)
[2] = biological target: T2, Human recombinant LSD1 protein (Homo sapiens (Human), UniProt O60341); details: read-out: LSD1 (Ki)
MAO-A [3] = biological target: T1, MAO-A; assay: biochemical
[4] = biological target: T2, Human recombinant LSD1 protein; assay: biochemical

T1 sequence (P21397 whole entry): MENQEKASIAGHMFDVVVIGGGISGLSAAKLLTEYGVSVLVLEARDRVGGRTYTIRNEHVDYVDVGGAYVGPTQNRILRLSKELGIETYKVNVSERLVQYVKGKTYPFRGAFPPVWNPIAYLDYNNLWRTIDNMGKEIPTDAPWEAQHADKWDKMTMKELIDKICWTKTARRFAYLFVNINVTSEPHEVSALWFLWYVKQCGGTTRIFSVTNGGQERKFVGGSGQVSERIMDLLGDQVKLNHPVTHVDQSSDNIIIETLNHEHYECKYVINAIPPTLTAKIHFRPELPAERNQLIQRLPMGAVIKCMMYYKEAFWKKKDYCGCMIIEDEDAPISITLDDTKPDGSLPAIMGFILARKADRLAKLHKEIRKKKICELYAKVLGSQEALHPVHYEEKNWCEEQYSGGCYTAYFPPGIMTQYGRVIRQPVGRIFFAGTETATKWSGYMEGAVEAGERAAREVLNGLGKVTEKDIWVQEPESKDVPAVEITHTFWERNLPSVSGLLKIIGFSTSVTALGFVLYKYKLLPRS
MAO-B, sequence (P27338 whole entry): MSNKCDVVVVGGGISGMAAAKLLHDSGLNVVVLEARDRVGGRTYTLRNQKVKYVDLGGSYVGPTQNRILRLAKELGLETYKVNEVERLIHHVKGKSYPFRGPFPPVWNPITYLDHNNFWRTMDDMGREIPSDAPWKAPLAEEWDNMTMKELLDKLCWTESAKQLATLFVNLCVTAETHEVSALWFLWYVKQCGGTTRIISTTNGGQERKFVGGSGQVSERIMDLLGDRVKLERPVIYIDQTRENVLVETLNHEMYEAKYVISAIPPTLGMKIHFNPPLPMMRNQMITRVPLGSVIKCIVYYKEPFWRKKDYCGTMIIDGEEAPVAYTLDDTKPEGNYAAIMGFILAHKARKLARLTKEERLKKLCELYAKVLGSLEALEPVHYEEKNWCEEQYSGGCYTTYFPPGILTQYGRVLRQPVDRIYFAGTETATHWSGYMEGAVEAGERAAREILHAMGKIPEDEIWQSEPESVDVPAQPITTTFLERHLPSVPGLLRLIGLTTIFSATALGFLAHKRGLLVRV

SMILES	Ki (MAO-B)	Ki (MAO-A [1])	Ki [2]	Ki (MAO-A [3])	Ki [4]
CS(=O)(=O)Nc1cc(Cl)cc(-c2ccc([C@H]3C[C@@H]3N)cn2)c1 (relative stereo) [Example 95, N-(3-(5-((trans)-2-aminocyclopropyl)pyridin-2-yl)-5-chlorophenyl)methanesulfonamide hydrochloride]				100 to 1000 nM	
CNS(=O)(=O)c1cccc(-c2ccc([C@H]3C[C@@H]3N)cn2)c1 [Example 104, hydrochloride]	1000 to 40000 nM			100 to 1000 nM	
N#Cc1ccc(O)c(-c2ccc([C@H]3C[C@@H]3N)cn2)c1 (relative stereo) [Example 89, 3-(5-((trans)-2-aminocyclopropyl)pyridin-2-yl)-4-hydroxybenzonitrile hydrochloride]				100 to 1000 nM	
Cc1ccc(-c2ccc([C@H]3C[C@@H]3N)cn2)cc1O (relative stereo) [Example 46, 5-(5-((trans)-2-aminocyclopropyl)pyridin-2-yl)-2-methylphenol hydrochloride]	1000 to 40000 nM	1000 to 40000 nM			1 to 100 nM
N[C@H]1C[C@@H]1c1ccc(-c2cc3ccccc3s2)nc1 (relative stereo) [Example 54, (trans)-2-(6-(benzo[b]thiophen-2-yl)pyridin-3-yl)cyclopropanamine hydrochloride]	1000 to 40000 nM	1000 to 40000 nM			100 to 1000 nM
COc1cccc(-c2ccc([C@H]3C[C@@H]3N)cn2)c1F (relative stereo) [Example 41, (trans)-2-(6-(2-fluoro-3-methoxyphenyl)pyridin-3-yl)cyclopropanamine hydrochloride]	1000 to 40000 nM	1000 to 40000 nM			100 to 1000 nM
N#Cc1cccc(S(=O)(=O)Nc2cccc(-c3ccc([C@H]4C[C@@H]4N)cn3)c2)c1 (relative stereo) [Example 100, N-(3-(5-((trans)-2-aminocyclopropyl)pyridin-2-yl)phenyl)-3-cyanobenzenesulfonamide hydrochloride]				100 to 1000 nM	
N[C@H]1C[C@@H]1c1ccc(-c2cccc(C(F)(F)F)c2)nc1Cl (relative stereo) [Example 76, (trans)-2-(2-chloro-6-(3-(trifluoromethyl)phenyl)pyridin-3-yl)cyclopropanamine hydrochloride]	1000 to 40000 nM	1000 to 40000 nM			100 to 1000 nM
CC(=O)Nc1cccc(-c2ccc([C@H]3C[C@@H]3N)cn2)c1 (relative stereo) [Example 52, N-(3-(5-((trans)-2-aminocyclopropyl)pyridin-2-yl)phenyl)acetamide hydrochloride]	1000 to 40000 nM	1000 to 40000 nM			100 to 1000 nM
COc1cc(-c2ccc([C@H]3C[C@@H]3N)cn2)ccc1F (relative stereo) [Example 38, (trans)-2-(6-(4-fluoro-3-methoxyphenyl)pyridin-3-yl)cyclopropanamine hydrochloride]	1000 to 40000 nM	1000 to 40000 nM			100 to 1000 nM
Cc1cscc1-c1ccc([C@H]2C[C@@H]2N)cn1 (relative stereo) [Example 57, (trans)-2-(6-(4-methylthiophen-3-yl)pyridin-3-yl)cyclopropanamine hydrochloride]	1000 to 40000 nM	1000 to 40000 nM			100 to 1000 nM
N#Cc1ccc(-c2ccc([C@H]3C[C@@H]3N)cn2)cc1 (relative stereo) [Example 12, 4-(5-((trans)-2-aminocyclopropyl)pyridin-2-yl)benzonitrile dihydrochloride]	1000 to 40000 nM	1000 to 40000 nM			100 to 1000 nM
N#Cc1cccc(-c2ccc([C@H]3C[C@@H]3N)cn2)c1 (relative stereo) [Example 13, 3-(5-((trans)-2-aminocyclopropyl)pyridin-2-yl)benzonitrile hydrochloride]	1000 to 40000 nM	1000 to 40000 nM			1 to 100 nM
COc1ccc(C#N)cc1-c1ccc([C@H]2C[C@@H]2N)cn1 (relative stereo) [Example 72, 3-(5-((trans)-2-aminocyclopropyl)pyridin-2-yl)-4-methoxybenzonitrile hydrochloride]	1000 to 40000 nM	1000 to 40000 nM			100 to 1000 nM
N#Cc1ccc(O)c(-c2ccc([C@H]3C[C@@H]3N)cc2)c1 (relative stereo) [Example 87, 4′-((trans)-2-aminocyclopropyl)-6-hydroxybiphenyl-3-carbonitrile hydrochloride]				100 to 1000 nM	
N[C@H]1C[C@@H]1c1ccc(-c2ccc3sccc3c2)nc1 (relative stereo) [Example 34, (trans)-2-(6-(benzo[b]thiophen-5-yl)pyridin-3-yl)cyclopropanamine hydrochloride]	1000 to 40000 nM	1000 to 40000 nM			100 to 1000 nM
COc1cc(-c2ccc([C@H]3C[C@@H]3N)cn2)cc(F)c1F (relative stereo) [Example 58, (Trans)-2-(6-(3,4-difluoro-5-methoxyphenyl)pyridin-3-yl)cyclopropanamine hydrochloride]	1000 to 40000 nM	1000 to 40000 nM			100 to 1000 nM
N[C@H]1C[C@@H]1c1ccc(-c2cc(C(F)(F)F)ccc2F)nc1 (relative stereo) [Example 49, (trans)-2-(6-(2-fluoro-5-(trifluoromethyl)phenyl)pyridin-3-yl)cyclopropanamine hydrochloride]	1000 to 40000 nM	1000 to 40000 nM			100 to 1000 nM
N[C@H]1C[C@@H]1c1ccc(-c2cc(O)ccc2F)nc1 (relative stereo) [Example 25, 3-(5-((trans)-2-aminocyclopropyl)pyridin-2-yl)-4-fluorophenol hydrochloride]	1000 to 40000 nM	1000 to 40000 nM			1 to 100 nM
N[C@H]1C[C@@H]1c1ccc(-c2cccc(C(F)(F)F)c2F)nc1 (relative stereo) [Example 30, (trans)-2-(6-(2-fluoro-3-(trifluoromethyl)phenyl)pyridin-3-yl)cyclopropanamine hydrochloride]	1000 to 40000 nM	1000 to 40000 nM			100 to 1000 nM
N[C@H]1C[C@@H]1c1ccc(-c2ccc(O)cc2)nc1 (relative stereo) [Example 16, 4-(5-((trans)-2-aminocyclopropyl)pyridin-2-yl)phenol hydrochloride]	1000 to 40000 nM	1000 to 40000 nM			100 to 1000 nM
N[C@H]1C[C@@H]1c1ccc(-c2cc(O)cc(Cl)c2)nc1 (relative stereo) [Example 29, 3-(5-((trans)-2-aminocyclopropyl)pyridin-2-yl)-5-chlorophenol hydrochloride]	1000 to 40000 nM	1000 to 40000 nM			1 to 100 nM

Further lines, results first:

Ki (MAO-B)	Ki (MAO-A [1])	Ki [2]	Ki (MAO-A [3])	Ki [4]	SMILES
1000 to 40000 nM	1000 to 40000 nM	1000 to 40000 nM			Cc1cc([C@H]2C[C@@H]2N)cnc1-c1cccc(Cl)c1 (relative stereo) [Example 36, (trans)-2-(6-(3-chlorophenyl)-5-methylpyridin-3-yl)cyclopropanamine]
1000 to 40000 nM			100 to 1000 nM	1 to 100 nM	CS(=O)(=O)Nc1cc(-c2ccc([C@H]3C[C@@H]3N)cc2)ccc1F (relative stereo) [Example 96, N-(4′-((trans)-2-aminocyclopropyl)-4-fluoro-[1,1′-biphenyl]-3-yl)methanesulfonamide hydrochloride]
1000 to 40000 nM	1000 to 40000 nM	1000 to 40000 nM			NC(=O)c1ccc(-c2nc(-c3cccc(C(F)(F)F)c3)ccc2[C@H]2C[C@@H]2N)cc1 (relative stereo) [Example 79, 4-(3-((trans)-2-aminocyclopropyl)-6-(3-(trifluoromethyl)phenyl)pyridin-2-yl)benzamide hydrochloride]
1000 to 40000 nM	1000 to 40000 nM	1000 to 40000 nM			Cc1cc([C@H]2C[C@@H]2N)cnc1-c1cccc(C(F)(F)F)c1 (relative stereo) [Example 37, (trans)-2-(5-methyl-6-(3-(trifluoromethyl)phenyl)pyridin-3-yl)cyclopropanamine hydrochloride]
1000 to 40000 nM			100 to 1000 nM	100 to 1000 nM	COc1cc(-c2cccc(O)c2)ccc1[C@H]1C[C@@H]1N (relative stereo) [Example 106, 4′-((trans)-2-aminocyclopropyl)-3′-methoxy-[1,1′-biphenyl]-3-ol hydrochloride]
1000 to 40000 nM			1 to 100 nM	1 to 100 nM	N[C@H]1C[C@@H]1c1cnc(-c2cccc(O)c2)s1 (relative stereo) [Example 116, 3-(5-((trans)-2-aminocyclopropyl)thiazol-2-yl)phenol hydrochloride]
1000 to 40000 nM	1000 to 40000 nM			100 to 1000 nM	Cc1nc(-c2cccc(C(F)(F)F)c2)ccc1[C@H]1C[C@@H]1N (relative stereo) [Example 80, (trans)-2-(2-methyl-6-(3-(trifluoromethyl)phenyl)pyridin-3-yl)cyclopropanamine hydrochloride]
1000 to 40000 nM	1000 to 40000 nM			100 to 1000 nM	N[C@H]1C[C@@H]1c1ccc(-c2ccc3c(c2)NC(=O)C3)nc1 (relative stereo) [Example 62, 6-(5-((trans)-2-aminocyclopropyl)pyridin-2-yl)indolin-2-one hydrochloride]
1000 to 40000 nM	1000 to 40000 nM			100 to 1000 nM	N[C@H]1C[C@@H]1c1ccc(-c2cc(O)ccc2Cl)nc1 (relative stereo) [Example 47, 3-(5-((trans)-2-aminocyclopropyl)pyridin-2-yl)-4-chlorophenol hydrochloride]
1000 to 40000 nM	1000 to 40000 nM			100 to 1000 nM	NC(=O)c1cccc(-c2ccc([C@H]3C[C@@H]3N)cn2)c1 (relative stereo) [Example 19, 3-(5-((trans)-2-aminocyclopropyl)pyridin-2-yl)benzamide hydrochloride]
1000 to 40000 nM	1000 to 40000 nM			100 to 1000 nM	N[C@H]1C[C@@H]1c1ccc(-c2cccc(O)c2F)nc1 (relative stereo) [Example 26, 3-(5-((trans)-2-aminocyclopropyl)pyridin-2-yl)-2-fluorophenol hydrochloride]
